Measured values reported in patent US20080146669A1, “Novel Chloride Channel Pore Openers” (THE UAB RESEARCH FOUNDATION, priority 2005, published 2008).

Tests used:
wild-type CFTR [1] = molecular target: T1, wild-type CFTR (Homo sapiens, UniProt P13569); assay: Ussing chamber transepithelial chloride currents, wild type CFTR-expressing CFBE41o- monolayers; assay type: cell-based; design: expressed in transfected cells; host or cells: HEK-293T, transient (Lipofectamine); details: 120 nM to 12 μM
Description: (§1) Cell culture DNA constructs and transfections. Baby hamster kidney (BHK) cells stably expressing wild type human CFTR (BHK-CFTR) were provided by J. Hanrahan (McGill University). BHK-CFTR cells were cultured in Dulbecco's modified Eagle's medium (DMEM (Mediatech)) supplemented with 5% fetal bovine serum (FBS) and 1 mM penicillin-streptomycin. The growth media for the BHK-CFTR cells also contained 0.5 mM methotrexate to maintain selection for CFTR-expressing cells (22). HEK-293T cells were transiently transfected with wild-type or mutant CFTR cDNA using the Lipofectamine transfection kit following manufacturer's recommendations (Invitrogen, Corp). HEK-293T cells were cultured in DMEM. All cells were grown on plastic coverslips for patch clamp recording and were used 2-3 days post-seeding. Electrophysiology and data analysis. Macroscopic and multi-channel currents were recorded in the excised, inside-out configuration. Patch pipettes were pulled from Corning 8161 glass to tip resistances of […] (macroscopic recordings) or 8-10 mOhm (micropatch studies). CFTR channels were activated following patch excision by exposure of the cytoplasmic face of the patch to catalytic subunit of protein kinase A (PKA; 110 U/ml; Promega) and Mg-ATP (1.5 mM). CFTR currents were recorded in symmetrical solution containing (in mM): 140 N-methyl-D-glucaniine-Cl, 3 MgCl2, 1 EGTA and 10 TES. […]

ΔF508-CFTR [2] = molecular target: T2, ΔF508-CFTR (Homo sapiens, UniProt P13569, DEL508-508); assay: Macroscopic currents in excised patches from temperature-corrected HEK-293T cells expressing ΔF508-CFTR; assay type: biochemical
T2 construct: expressed in transfected cells; host or cells: HEK-293T, transient; grown at 28° C. for 24 hrs
Description: (§2) Cell culture DNA constructs and transfections. Baby hamster kidney (BHK) cells stably expressing wild type human CFTR (BHK-CFTR) were provided by J. Hanrahan (McGill University). BHK-CFTR cells were cultured in Dulbecco's modified Eagle's medium (DMEM (Mediatech)) supplemented with 5% fetal bovine serum (FBS) and 1 mM penicillin-streptomycin. The growth media for the BHK-CFTR cells also contained 0.5 mM methotrexate to maintain selection for CFTR-expressing cells (22). HEK-293T cells were transiently transfected with wild-type or mutant CFTR cDNA using the Lipofectamine transfection kit following manufacturer's recommendations (Invitrogen, Corp). HEK-293T cells were cultured in DMEM. All cells were grown on plastic coverslips for patch clamp recording and were used 2-3 days post-seeding. Electrophysiology and data analysis. Macroscopic and multi-channel currents were recorded in the excised, inside-out configuration. Patch pipettes were pulled from Corning 8161 glass to tip resistances of […] (macroscopic recordings) or 8-10 mOhm (micropatch studies). CFTR channels were activated following patch excision by exposure of the cytoplasmic face of the patch to catalytic subunit of protein kinase A (PKA; 110 U/ml; Promega) and Mg-ATP (1.5 mM). CFTR currents were recorded in symmetrical solution containing (in mM): 140 N-methyl-D-glucaniine-Cl, 3 MgCl2, 1 EGTA and 10 TES. The pH was adjusted to 7.3. Macroscopic currents were evoked using a ramp protocol from +80 to −80 mV with a 10 sec time period. Patches were held at −80 mV or +80 mV for micropatch (multichannel) recordings. All patch clamp experiments were performed at 21-23° C. Signals from macroscopic and single channel recording were filtered at 20 and 200 Hz, respectively. Data acquisition and analysis were performed using pCLAMP8 and pCLAMP9 software (Axon Instruments). Curve fitting for kinetic analysis was performed using Microcal Origin software. Averaged data are presented as mean +/−SEM. Statistical comparisons were made by performing unpaired t-tests unless otherwise indicated. Ussing Chamber Experiments-CFBE41o epithelial cells stably transfected with ΔF508-CFTR or transiently transfected with wild-type CFTR were cultured as electrically resistive monolayers and assayed in Ussing chambers as described (16). ΔF508-CFTR-expressing monolayers were grown at 27° C. for 2-3 days to enhance the surface expression of this temperature-sensitive mutant. A serosal-to-mucosal Cl^− gradient (120 to 1.2 mM) was imposed, followed by amiloride addition (100 μM) to block Na^+ currents. Compounds were added to both chambers at the indicated concentrations. A 3-mV voltage pulse was imposed every 100 s to monitor transepithelial resistance.

ΔF508-CFTR [3] = molecular target: T2, ΔF508-CFTR; assay: Ussing chamber transepithelial chloride currents, temperature-corrected ΔF508-CFTR CFBE41o- monolayers; assay type: cell-based
Description: as §2

wild-type CFTR [4] = molecular target: T1, wild-type CFTR; assay: Micropatch (multichannel) recording of BHK-CFTR patches, opening rate and Po; assay type: biochemical; design: expressed in transfected cells; provided by J. Hanrahan (McGill University)
Description: as §2, with “CFTR channels were activated following patch excision by exposure of the cytoplasmic face of the patch to catalytic subunit of protein kinase A (PKA; 110 U/ml; Promega) and Mg-ATP (1.5 mM).” left out, “Ussing Chamber Experiments-CFBE41o epithelial cells stably transfected with ΔF508-CFTR or transiently transfected with wild-type CFTR were cultured as electrically resistive monolayers and assayed in Ussing chambers as described (16). ΔF508-CFTR-expressing monolayers were grown at 27° C. for 2-3 days to enhance the surface expression of this temperature-sensitive mutant. A serosal-to-mucosal Cl^− gradient (120 to 1.2 mM) was imposed, followed by amiloride addition (100 μM) to block Na^+ currents. Compounds were added to both chambers at the indicated concentrations. A 3-mV voltage pulse was imposed every 100 s to monitor transepithelial resistance.” left out

AR-S660A-CFTR = molecular target: T3, AR-S660A-CFTR (Homo sapiens, UniProt P13569, DEL708-835/S660A); assay: Macroscopic currents in excised HEK-293T patches, R domain deletion mutant, no PKA; assay type: biochemical; details: 10 μM
T3 construct: expressed in transfected cells; host or cells: HEK-293T, transient
Description: as §1

[5] = 10 μM, poorly phosphorylated, −80 mV, best guess estimate, mean±S.E., n=7

T1 sequence (P13569 whole entry): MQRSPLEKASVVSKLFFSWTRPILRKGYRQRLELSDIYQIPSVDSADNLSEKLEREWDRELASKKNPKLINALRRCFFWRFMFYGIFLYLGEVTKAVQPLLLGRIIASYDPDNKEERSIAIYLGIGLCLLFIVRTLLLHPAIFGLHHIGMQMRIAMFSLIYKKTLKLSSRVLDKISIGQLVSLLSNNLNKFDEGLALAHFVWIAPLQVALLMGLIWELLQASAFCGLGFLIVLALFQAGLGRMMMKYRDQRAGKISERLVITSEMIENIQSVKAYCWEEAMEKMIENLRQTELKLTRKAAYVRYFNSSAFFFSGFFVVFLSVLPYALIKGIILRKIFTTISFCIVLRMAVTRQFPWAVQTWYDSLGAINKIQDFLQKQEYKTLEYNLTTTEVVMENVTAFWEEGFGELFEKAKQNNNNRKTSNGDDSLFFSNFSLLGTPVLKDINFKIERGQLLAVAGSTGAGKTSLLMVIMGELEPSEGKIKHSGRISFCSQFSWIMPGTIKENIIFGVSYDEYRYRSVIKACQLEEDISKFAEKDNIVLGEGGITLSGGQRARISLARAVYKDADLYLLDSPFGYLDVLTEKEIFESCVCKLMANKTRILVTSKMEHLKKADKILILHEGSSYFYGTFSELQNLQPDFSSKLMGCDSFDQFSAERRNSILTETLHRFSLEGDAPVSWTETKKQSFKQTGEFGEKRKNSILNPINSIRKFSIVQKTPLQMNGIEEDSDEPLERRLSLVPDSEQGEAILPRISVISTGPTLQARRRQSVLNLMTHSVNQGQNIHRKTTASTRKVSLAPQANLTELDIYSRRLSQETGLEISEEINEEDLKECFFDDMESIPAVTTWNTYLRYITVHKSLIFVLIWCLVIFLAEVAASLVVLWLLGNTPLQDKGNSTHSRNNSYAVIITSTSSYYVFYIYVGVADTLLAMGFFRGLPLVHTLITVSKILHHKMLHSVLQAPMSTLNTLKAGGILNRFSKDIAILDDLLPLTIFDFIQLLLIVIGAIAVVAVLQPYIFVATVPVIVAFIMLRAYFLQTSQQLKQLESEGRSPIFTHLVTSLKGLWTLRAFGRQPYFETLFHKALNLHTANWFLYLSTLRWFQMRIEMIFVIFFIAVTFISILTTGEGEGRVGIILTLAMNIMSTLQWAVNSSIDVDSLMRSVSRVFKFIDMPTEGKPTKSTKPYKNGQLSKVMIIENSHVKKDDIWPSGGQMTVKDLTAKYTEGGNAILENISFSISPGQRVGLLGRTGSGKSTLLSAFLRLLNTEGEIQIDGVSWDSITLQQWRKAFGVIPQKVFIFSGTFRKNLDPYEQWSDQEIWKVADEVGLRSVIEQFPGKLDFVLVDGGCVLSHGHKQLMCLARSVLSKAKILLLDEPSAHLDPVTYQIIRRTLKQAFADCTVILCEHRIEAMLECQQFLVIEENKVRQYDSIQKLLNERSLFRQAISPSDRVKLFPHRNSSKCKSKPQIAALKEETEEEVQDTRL
T2 sequence (P13569 with tags, fused parts or gaps DEL508-508): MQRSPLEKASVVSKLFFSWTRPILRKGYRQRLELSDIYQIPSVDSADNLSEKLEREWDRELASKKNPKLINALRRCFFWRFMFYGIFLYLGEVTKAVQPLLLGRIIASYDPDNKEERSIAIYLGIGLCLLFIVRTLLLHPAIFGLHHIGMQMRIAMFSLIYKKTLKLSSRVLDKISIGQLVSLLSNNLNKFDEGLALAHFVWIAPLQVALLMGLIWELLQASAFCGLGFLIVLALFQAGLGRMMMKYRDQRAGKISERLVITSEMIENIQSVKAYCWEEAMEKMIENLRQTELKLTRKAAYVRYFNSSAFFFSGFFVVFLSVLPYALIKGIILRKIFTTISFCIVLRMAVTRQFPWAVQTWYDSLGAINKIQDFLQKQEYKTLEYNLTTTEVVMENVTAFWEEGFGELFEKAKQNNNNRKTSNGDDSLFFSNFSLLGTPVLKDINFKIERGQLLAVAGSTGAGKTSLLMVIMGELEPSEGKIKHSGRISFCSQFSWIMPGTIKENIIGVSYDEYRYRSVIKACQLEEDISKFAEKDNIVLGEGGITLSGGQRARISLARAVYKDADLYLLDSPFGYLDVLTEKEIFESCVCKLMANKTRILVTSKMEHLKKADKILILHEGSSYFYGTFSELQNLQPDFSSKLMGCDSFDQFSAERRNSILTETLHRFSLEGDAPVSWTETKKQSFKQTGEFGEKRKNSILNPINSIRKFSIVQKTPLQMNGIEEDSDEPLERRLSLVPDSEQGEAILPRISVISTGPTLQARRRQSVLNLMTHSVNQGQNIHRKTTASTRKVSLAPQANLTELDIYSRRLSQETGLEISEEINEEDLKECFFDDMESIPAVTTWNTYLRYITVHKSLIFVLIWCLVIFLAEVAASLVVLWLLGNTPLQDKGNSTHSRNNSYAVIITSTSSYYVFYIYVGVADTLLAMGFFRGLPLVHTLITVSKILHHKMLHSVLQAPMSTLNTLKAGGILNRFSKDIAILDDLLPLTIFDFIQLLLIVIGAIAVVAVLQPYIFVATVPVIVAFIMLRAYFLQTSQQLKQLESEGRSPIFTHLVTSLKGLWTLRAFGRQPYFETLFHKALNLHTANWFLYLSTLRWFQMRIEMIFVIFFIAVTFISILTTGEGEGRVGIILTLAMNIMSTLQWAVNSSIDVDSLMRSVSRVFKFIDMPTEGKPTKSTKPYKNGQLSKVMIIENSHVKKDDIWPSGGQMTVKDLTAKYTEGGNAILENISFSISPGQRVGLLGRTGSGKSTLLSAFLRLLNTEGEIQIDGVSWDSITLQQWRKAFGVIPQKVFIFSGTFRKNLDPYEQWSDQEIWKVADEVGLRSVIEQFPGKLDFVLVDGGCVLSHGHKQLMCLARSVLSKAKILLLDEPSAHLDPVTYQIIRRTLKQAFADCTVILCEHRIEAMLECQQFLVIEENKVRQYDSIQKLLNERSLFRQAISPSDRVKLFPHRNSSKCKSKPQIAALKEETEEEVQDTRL
T3 sequence (P13569 with tags, fused parts or gaps S660A/DEL708-835): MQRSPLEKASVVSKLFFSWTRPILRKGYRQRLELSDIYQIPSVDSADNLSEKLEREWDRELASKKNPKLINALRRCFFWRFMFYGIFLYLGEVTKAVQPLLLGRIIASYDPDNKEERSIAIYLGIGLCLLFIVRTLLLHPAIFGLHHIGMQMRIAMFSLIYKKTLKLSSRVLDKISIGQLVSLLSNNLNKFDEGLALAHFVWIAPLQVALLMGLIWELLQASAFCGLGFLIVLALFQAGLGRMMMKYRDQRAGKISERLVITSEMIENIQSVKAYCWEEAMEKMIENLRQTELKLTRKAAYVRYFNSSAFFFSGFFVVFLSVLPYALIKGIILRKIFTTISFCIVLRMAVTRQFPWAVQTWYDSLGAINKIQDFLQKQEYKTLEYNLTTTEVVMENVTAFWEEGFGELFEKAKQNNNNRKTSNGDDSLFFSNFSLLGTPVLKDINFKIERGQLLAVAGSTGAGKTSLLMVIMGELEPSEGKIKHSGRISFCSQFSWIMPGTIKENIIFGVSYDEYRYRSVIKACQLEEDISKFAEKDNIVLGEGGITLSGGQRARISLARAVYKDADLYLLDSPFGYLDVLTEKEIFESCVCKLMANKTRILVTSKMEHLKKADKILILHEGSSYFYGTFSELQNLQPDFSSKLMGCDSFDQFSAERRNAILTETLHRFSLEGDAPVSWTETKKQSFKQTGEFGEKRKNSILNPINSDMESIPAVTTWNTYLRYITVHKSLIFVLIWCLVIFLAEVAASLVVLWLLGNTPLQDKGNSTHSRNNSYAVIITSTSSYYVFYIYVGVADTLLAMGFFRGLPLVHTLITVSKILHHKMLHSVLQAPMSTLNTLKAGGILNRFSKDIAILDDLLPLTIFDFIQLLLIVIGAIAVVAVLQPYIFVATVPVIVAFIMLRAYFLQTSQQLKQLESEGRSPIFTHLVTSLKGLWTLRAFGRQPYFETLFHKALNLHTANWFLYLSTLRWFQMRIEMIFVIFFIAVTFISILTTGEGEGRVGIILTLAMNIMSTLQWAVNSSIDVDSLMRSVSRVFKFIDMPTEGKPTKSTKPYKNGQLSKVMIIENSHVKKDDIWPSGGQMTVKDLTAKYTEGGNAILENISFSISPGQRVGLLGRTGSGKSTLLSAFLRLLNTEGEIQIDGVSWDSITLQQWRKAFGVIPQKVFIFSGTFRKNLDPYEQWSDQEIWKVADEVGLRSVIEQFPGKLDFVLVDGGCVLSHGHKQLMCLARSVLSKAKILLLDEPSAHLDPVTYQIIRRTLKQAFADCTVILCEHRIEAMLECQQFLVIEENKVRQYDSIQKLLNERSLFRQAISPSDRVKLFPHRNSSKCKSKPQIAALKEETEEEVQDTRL

## NC(=O)c1cc([N+](=O)[O-])ccc1NCCCc1ccccc1 [NPPB-Am]
wild-type CFTR [1]
  effect on transepithelial currents without cAMP agonist: stimulated the transepithelial currents
ΔF508-CFTR [2]; 10 μM, 1.5 mM Mg-ATP and 110 U/ml PKA
  increase in ΔF508-CFTR macroscopic currents: 10-15 fold
ΔF508-CFTR [2]; 10 μM, high PKA 110 U/ml without PKI
  effect on ΔF508-CFTR macroscopic currents: dramatically stimulated
ΔF508-CFTR [2]; added after PKI
  effect on ΔF508-CFTR channel activity in the absence of active kinase: markedly stimulated
ΔF508-CFTR [3]; 120 nM to 12 μM
  effect on transepithelial currents without cAMP agonist: stimulated the transepithelial currents
ΔF508-CFTR [3]; 1 μM compound with 1 μM forskolin, N=8-12
  potentiation of the forskolin effect on ΔF508-CFTR transepithelial currents: markedly potentiated the effect of forskolin
ΔF508-CFTR [3]; prior treatment with H89 100 μM, n=4, monolayer type (wild-type or ΔF508) not stated
  stimulated transepithelial current with H89: 5.5+/−1.3 μA/cm^2
ΔF508-CFTR [3]; −H89, n=4, monolayer type (wild-type or ΔF508) not stated
  stimulated transepithelial current without H89: 23.3+/−2.0 μA/cm^2
wild-type CFTR [4]; [5]
  mean single channel opening rate, post compound: 1.07±0.29 openings/s/channel
  single channel Po, post compound: 0.26±0.06
wild-type CFTR [4]; poorly phosphorylated (2 U/ml PKA), fewer than 10 channels per patch
  effect on opening rates and mean single channel open probabilities (Pos): markedly increased the opening rates and mean single channel open probabilities
AR-S660A-CFTR
  effect on currents in the absence of PKA: markedly stimulate
